Assay results reported in ChEMBL document CHEMBL1201862, “PubChem BioAssay data set” (2004).
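Values below derive from 48-hour exposures of cells grown in 96-well plates, with endpoints linearly interpolated between the two concentrations bracketing the appropriate inhibition level. At the GI50, growth is halved.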 Active and inactive are the calls of the source. Rule as the data show it: active = GI50 up to about 1.1 µM and inactive = higher.

Assays:
Test in all cases: NCI tumour cell line growth inhibition, 48 h
[1] = test system: BT-549
[2] = test system: M14
[3] = test system: U-251
[4] = test system: SN12C
[5] = test system: LOX IMVI
[6] = test system: Malme-3M
[7] = test system: CAKI-1
[8] = test system: OVCAR-4
[9] = test system: COLO 205
[10] = test system: DU-145
[11] = test system: A549
[12] = test system: MDA-MB-231
[13] = test system: KM12
[14] = test system: HOP-62
[15] = test system: SR
[16] = test system: NCI-H460
[17] = test system: SF-268
[18] = test system: UACC-62
[19] = test system: SK-OV-3
[20] = test system: SK-MEL-5

| Structure (SMILES) | GI50 [1] | GI50 [2] | GI50 [3] | GI50 [4] | GI50 [5] | GI50 [6] | GI50 [7] | GI50 [8] | GI50 [9] | GI50 [10] | GI50 [11] | GI50 [12] | GI50 [13] | GI50 [14] | GI50 [15] | GI50 [16] | GI50 [17] | GI50 [18] | GI50 [19] | GI50 [20] |
| --- | --- | --- | --- | --- | --- | --- | --- | --- | --- | --- | --- | --- | --- | --- | --- | --- | --- | --- | --- | --- |
| CC(CCC(=O)O)[C@H]1CCC2[C@H]3C(CC(=O)[C@@]21C)[C@@]1(C)CCC(O)C[C@H]1C[C@@H]3O (some centres not stated) | > 100 µM (inactive) | > 100 µM (inactive) | > 100 µM (inactive) | > 100 µM (inactive) | > 100 µM (inactive) | > 100 µM (inactive) | > 100 µM (inactive) | > 100 µM (inactive) | > 100 µM (inactive) | > 100 µM (inactive) | > 100 µM (inactive) | > 100 µM (inactive) | > 100 µM (inactive) | > 100 µM (inactive) | > 100 µM (inactive) | > 100 µM (inactive) | > 100 µM (inactive) | > 100 µM (inactive) |  |  |
| COc1ccc2c(c1)-c1nn(CCN(C)C)c3ccc(C(=O)NCCCN(C)CCCNC(=O)c4ccc5c6c(c7cc(OC)ccc7nc46)NN5CCN(C)C)c(c13)N2 | 0.138 µM (active) | 0.0822 µM (active) | < 0.01 µM (active) | 0.0225 µM (active) | 0.0192 µM (active) | 0.106 µM (active) | 0.346 µM (active) | 0.0352 µM (active) | 0.0169 µM (active) | 0.0284 µM (active) | 0.0136 µM (active) | 0.114 µM (active) | 0.0284 µM (active) | 0.0318 µM (active) | 0.127 µM (active) | 0.0187 µM (active) | 0.153 µM (active) | 0.0692 µM (active) | 0.0861 µM (active) | 0.0512 µM (active) |
| COc1ccccc1/[N+]([O-])=C/c1ccccc1OC(=S)S | 25.9 µM (inactive) | 41.1 µM (inactive) | 41.7 µM (inactive) | 88.1 µM (inactive) | 28.1 µM (inactive) | 96.4 µM (inactive) | 58.9 µM (inactive) | 28.3 µM (inactive) | 27.4 µM (inactive) | 70.5 µM (inactive) | > 100 µM (inactive) | 30.9 µM (inactive) | 47.6 µM (inactive) |  | 31.5 µM (inactive) | 64.9 µM (inactive) | 33.7 µM (inactive) | 32.9 µM (inactive) | > 100 µM (inactive) | 34.2 µM (inactive) |
| C[C@H]1C2Cc3cc(O)ccc3[C@@]1(C)CCN2CCc1ccc(N)cc1 | > 100 µM (inactive) | 18.4 µM (inactive) | 17.6 µM (inactive) | 98.9 µM (inactive) | 14.1 µM (inactive) | 18.8 µM (inactive) | > 100 µM (inactive) | 55.6 µM (inactive) | 28.6 µM (inactive) | > 100 µM (inactive) | 28.6 µM (inactive) | 34.9 µM (inactive) | 16.7 µM (inactive) | 8.69 µM (inactive) | 21.6 µM (inactive) | 30.3 µM (inactive) | 19.6 µM (inactive) | > 100 µM (inactive) | > 100 µM (inactive) | 14.4 µM (inactive) |
| CC(=O)OCC1OC(n2c(N)c(C#N)c(-c3ccccc3)c(C#N)c2=S)C(OC(C)=O)C(OC(C)=O)C1OC(C)=O (configuration not stated) | 42.6 µM (inactive) | > 100 µM (inactive) | 11.2 µM (inactive) | > 100 µM (inactive) | > 100 µM (inactive) | > 100 µM (inactive) | 44.3 µM (inactive) | > 49.8 µM (inactive) | > 100 µM (inactive) | > 100 µM (inactive) | > 100 µM (inactive) | 34 µM (inactive) | > 100 µM (inactive) | 11.6 µM (inactive) | > 100 µM (inactive) | > 79.8 µM (inactive) | 7.8 µM (inactive) | > 61.8 µM (inactive) | 54.2 µM (inactive) | > 100 µM (inactive) |
| C/C1=C\CC[C@@]2(C)O[C@@H]2C[C@@H]2[C@H](C/C(C)=C/CC1)OC(=O)[C@]21CO1 | > 100 µM (inactive) | > 100 µM (inactive) | 63.8 µM (inactive) | 74.5 µM (inactive) | 19.6 µM (inactive) | > 100 µM (inactive) | > 100 µM (inactive) | > 100 µM (inactive) | > 100 µM (inactive) | > 100 µM (inactive) | 65.2 µM (inactive) | > 100 µM (inactive) | 28.8 µM (inactive) | > 100 µM (inactive) | 36.7 µM (inactive) | 20.7 µM (inactive) | > 100 µM (inactive) | 75.5 µM (inactive) | > 100 µM (inactive) | > 100 µM (inactive) |
| CO[C@]12S[C@@H]3CCCC[C@@]31C(C)(C)C(=O)N2c1ccccc1 | 27.4 µM (inactive) | 70 µM (inactive) | 26.6 µM (inactive) | 18.4 µM (inactive) | 32.6 µM (inactive) | > 100 µM (inactive) | 48.5 µM (inactive) |  | 14.4 µM (inactive) | 55.3 µM (inactive) | 67.3 µM (inactive) | 42.2 µM (inactive) | 36.7 µM (inactive) | 16.7 µM (inactive) | 28.5 µM (inactive) | 33 µM (inactive) | 37.9 µM (inactive) | 49.8 µM (inactive) | 25.8 µM (inactive) | 20.5 µM (inactive) |
| COc1ccc(-c2cc(=O)c3c(O)cc(O)cc3o2)cc1OC | 17.9 µM (inactive) | > 100 µM (inactive) | 30 µM (inactive) | 59.6 µM (inactive) | 61.8 µM (inactive) | > 100 µM (inactive) |  | > 100 µM (inactive) | > 100 µM (inactive) | 57 µM (inactive) | > 100 µM (inactive) | > 100 µM (inactive) | 33 µM (inactive) | 24 µM (inactive) | 9.2 µM (inactive) | 44.7 µM (inactive) | 28.4 µM (inactive) | 61.4 µM (inactive) | 47.4 µM (inactive) | 23 µM (inactive) |
| CCCN(CCC)CCc1ccc(OC2=CCN(C)CC2)cc1 | 29.8 µM (inactive) | 15.7 µM (inactive) | > 100 µM (inactive) | > 100 µM (inactive) | 23 µM (inactive) | 13.8 µM (inactive) | > 100 µM (inactive) | > 100 µM (inactive) | 50.6 µM (inactive) | > 100 µM (inactive) | > 100 µM (inactive) | > 100 µM (inactive) | 30.4 µM (inactive) | > 100 µM (inactive) | 28.2 µM (inactive) |  | 86.1 µM (inactive) | 38 µM (inactive) | > 100 µM (inactive) | 32.3 µM (inactive) |
| COc1ccc(/C=C/C(=O)C(C)(C)Br)cc1 | 1.92 µM (inactive) | 1.56 µM (inactive) | 13.7 µM (inactive) | 4.95 µM (inactive) | 7.33 µM (inactive) | 13.5 µM (inactive) | 17.4 µM (inactive) |  | 15 µM (inactive) | 14.3 µM (inactive) | 20.3 µM (inactive) | 20 µM (inactive) | 16.1 µM (inactive) | 6.3 µM (inactive) | 3.3 µM (inactive) | 18.9 µM (inactive) | 15.2 µM (inactive) | 12.7 µM (inactive) | 22.2 µM (inactive) | 14.7 µM (inactive) |
| COc1ccc(-n2c(CCCC(=O)O)nc3c2C(=O)c2ccccc2C3=O)cc1 | 8.79 µM (inactive) | 15.5 µM (inactive) | > 100 µM (inactive) | 54.6 µM (inactive) | 54.8 µM (inactive) | 15.2 µM (inactive) | > 100 µM (inactive) | 53.3 µM (inactive) | 37.1 µM (inactive) | 92 µM (inactive) | > 100 µM (inactive) | 63.5 µM (inactive) | 64.1 µM (inactive) |  | 66.8 µM (inactive) | 93.1 µM (inactive) | 46.7 µM (inactive) | 23.4 µM (inactive) | > 100 µM (inactive) |  |
| CCC(=O)N(c1ccccc1)C(C)CN1CCC(O)(c2ccccc2)CC1 (configuration not stated) | > 100 µM (inactive) | > 100 µM (inactive) | > 100 µM (inactive) | > 100 µM (inactive) | > 100 µM (inactive) | > 100 µM (inactive) | > 100 µM (inactive) | > 100 µM (inactive) | > 100 µM (inactive) | > 100 µM (inactive) | > 100 µM (inactive) | > 100 µM (inactive) |  | > 100 µM (inactive) | > 100 µM (inactive) |  | > 100 µM (inactive) | > 100 µM (inactive) | > 100 µM (inactive) | > 100 µM (inactive) |
| COC1CN(C)/C(=N\c2cccc3ccccc23)S1 (configuration not stated) | > 10 µM (inactive) | > 10 µM (inactive) | > 10 µM (inactive) | > 10 µM (inactive) | > 10 µM (inactive) | > 10 µM (inactive) | > 10 µM (inactive) | > 10 µM (inactive) | > 10 µM (inactive) | > 10 µM (inactive) | > 10 µM (inactive) | > 10 µM (inactive) | > 10 µM (inactive) | > 10 µM (inactive) | > 10 µM (inactive) |  | > 10 µM (inactive) | > 10 µM (inactive) | > 10 µM (inactive) | > 10 µM (inactive) |
| Cc1ccc(C(=O)CCC2C(=O)CC(C)(C)CC2=O)cc1 | > 100 µM (inactive) | > 100 µM (inactive) | > 100 µM (inactive) | > 100 µM (inactive) | > 100 µM (inactive) |  | 17.5 µM (inactive) | > 100 µM (inactive) | > 100 µM (inactive) | > 100 µM (inactive) | > 100 µM (inactive) | > 100 µM (inactive) | > 100 µM (inactive) | > 100 µM (inactive) | 15.7 µM (inactive) | > 100 µM (inactive) | > 100 µM (inactive) | > 100 µM (inactive) | > 100 µM (inactive) | > 100 µM (inactive) |
